Measurements published in PMC10683482, “Offsetting Low-Affinity Carbohydrate Binding with Covalency to Engage Sugar-Specific Proteins for Tumor-Immune Proximity Induction” (ACS Central Science, 2023).

System: human serum antirhamnose antibody (IgG and IgM)
Experiment: ELISA covalent engagement of serum anti-rhamnose antibody
Type: binding
Settings: 2 μM compound, 2% human serum, 48 h; rhamnose 100 mM added after incubation
Method: Figure 2 Capacity of Rha-cARMs to specifically covalently engage monoclonal anti-23F and serum anti-rhamnose. A. Chemical structures of the molecules investigated. B. Assessment of covalent vs noncovalent (cARM/ARM) engagement of human serum antirhamnose antibody via an ELISA assay. Each ARM/cARM (2 μM) was incubated with 2% human serum for 48 h and subsequently incubated directly on a streptavidin ELISA plate. Recruitment was evaluated by the addition of anti-IgG or anti-IgM HRP-conjugated secondary antibody with subsequent chromogenic substrate addition. “Comp” represents the addition of competitor rhamnose (500 mM) during 48 h of incubation. “Quench” refers to the addition of competitor rhamnose (100 mM) prior to ELISA plate binding but after 48 h of reaction incubation. C. SDS-PAGE fluorescent image of anti-23F antibody covalently labeled by fluorophore substituted Rha-cARMs (6–8). A representative protein stain associated with each gel is included on the left side of the fluorescent gel images. In all cases, 2 μM anti-23F antibody is incubated with 4 μM cARM (2 equiv) for 24 h in PBS spiked with 10% human serum. Where noted, L-rhamnose (100 mM, Rha. C) was used during incubation as a competitor for specific covalent labeling. Where noted, a free fluoresceine competitor (2.5 mM, Fluor. C) was used to distinguish fluorescein-promoted covalent labeling from rhamnose-promoted. The darker background in gels corresponding to cARM 6, 7 is attributed to the differing capacity of free cARM-fluorophore (fluoroscein vs A647) to be retained in gel, as well as an alternative imaging channel (Cy2 for fluorescein, Cy5 for A647). […] D. Kinetic SDS-PAGE fluorescence imaging experiment to determine Rha-AI-cARM/anti-23F antibody labeling kinetics using A647-cARM (8). cARM 8 (2–100 μM) was incubated with anti-23F antibody (2 μM) for up to 4 h. A representative fluorescence gel image is included corresponding to compound 8 (50 μM) incubated with either anti-23F antibody or isotype human IgG. Densitometry analysis with ImageJ was used to quantify relative band intensities. […] The error is calculated by alternative fits of initial rates data (all within the linear labeling range).
Next, we tested if cARM tool compounds can selectively label endogenous human polyclonal antirhamnose antibodies via ELISA (4 α-O rhamnose or 5 α-S rhamnose) (Figure 2B). cARMs (4, 5) and noncovalent analog ARMs (1, 2) were incubated with 2% human serum for 48 h followed by addition to a streptavidin-ELISA plate. Antibody recruitment to the plate surface was measured via the addition of HRP-conjugated anti-IgG or anti-IgM secondary antibody, followed by a chromogenic substrate. […] In the absence of a competitor, we observed robust absorbance signal in samples incubated with cARM. […]

Structure (SMILES)	antibody binding signal, quench control
C[C@@H]1O[C@@H](SCc2cn(CCOCCNC(=O)OCCOCCOCCOCCOCCOCCOCCOCCNC(=O)CCCC[C@@H]3SC[C@@H]4NC(=O)N[C@@H]43)nn2)[C@H](O)[C@H](O)[C@H]1O [compound 2]	baseline signal
C[C@@H]1O[C@@H](OCc2cn(CCOCCNC(=O)OCCOCCOCCOCCOCCOCCOCCOCCNC(=O)CCCC[C@@H]3SC[C@@H]4NC(=O)N[C@@H]43)nn2)[C@H](O)[C@H](O)[C@H]1O [compound 1]	baseline signal
C[C@@H]1O[C@@H](OCc2cn(CCc3cn(C(=O)OCCOCCOCCOCCOCCOCCOCCOCCNC(=O)CCCC[C@@H]4SC[C@@H]5NC(=O)N[C@@H]54)cn3)nn2)[C@H](O)[C@H](O)[C@H]1O [compound 4]	significant antibody binding signal
